Results published in patent publication US20250331519A1, “HERBICIDAL DERIVATIVES” (SYNGENTA CROP PROTECTION AG, priority 2022, published 2025).

Columns and labels:
Type in all cases: in vivo
[1] = test system: Echinochloa crus-galli (ECHCG); assay: Pre-emergence herbicidal glasshouse test; settings: evaluated after 13 days, five-point scale
[2] = test system: Zea mays (ZEAMX); assay: Pre-emergence herbicidal glasshouse test; settings: evaluated after 13 days, five-point scale
[3] = test system: Amaranthus retoflexus (AMARE); assay: Pre-emergence herbicidal glasshouse test; settings: evaluated after 13 days, five-point scale
[4] = test system: Setaria faberi (SETFA); assay: Pre-emergence herbicidal glasshouse test; settings: evaluated after 13 days, five-point scale
[5] = test system: Setaria faberi (SETFA); assay: Post-emergence herbicidal glasshouse test; settings: sprayed after 8 days cultivation, evaluated after 13 days, five-point scale
Procedure: (§1) Seeds of a variety of test species are sown in standard soil in pots (Ipomoea hederacea (IPOHE), Setaria faberi (SETFA), Zea mays (ZEAMX), Echinochloa crus-galli (ECHCG), Amaranthus palmeri (AMAPA), Amaranthus retoflexus (AMARE)). After 8 days cultivation under controlled conditions in a glasshouse (at 24° C./16° C., day/night; 14 hours light; 65% humidity), the plants are sprayed with an aqueous spray solution derived from the formulation of the technical active ingredient in acetone/water (50:50) solution containing 0.5% Tween 20 (polyoxyethelyene sorbitan monolaurate, CAS RN 9005-64-5). Compounds are applied at 1000 g/ha unless otherwise stated. The test plants are then grown in a glasshouse under controlled conditions in a glasshouse (at 24° C./16° C., day/night; 14 hours light; 65% humidity) and watered twice daily. After 13 days the test is evaluated for the percentage damage caused to the plant. The biological activities are shown in the following table on a five-point scale (5=81-100%; 4=61-80%; 3=41-60%; 2=21-40%; 1=0-20%; -=not tested).

[6] = test system: Zea mays (ZEAMX); assay: Post-emergence herbicidal glasshouse test; settings: sprayed after 8 days cultivation, evaluated after 13 days, five-point scale
Procedure: as §1

[7] = test system: Amaranthus retoflexus (AMARE); assay: Post-emergence herbicidal glasshouse test; settings: sprayed after 8 days cultivation, evaluated after 13 days, five-point scale
Procedure: as §1

[8] = test system: Echinochloa crus-galli (ECHCG); assay: Post-emergence herbicidal glasshouse test; settings: sprayed after 8 days cultivation, evaluated after 13 days, five-point scale
Procedure: as §1

[9] = test system: Amaranthus palmeri (AMAPA); assay: Post-emergence herbicidal glasshouse test; settings: sprayed after 8 days cultivation, evaluated after 13 days, five-point scale
Procedure: as §1

[10] = test system: Ipomoea hederacea (IPOHE); assay: Post-emergence herbicidal glasshouse test; settings: sprayed after 8 days cultivation, evaluated after 13 days, five-point scale
Procedure: as §1

[11] = test system: Ipomoea hederacea (IPOHE); assay: Pre-emergence herbicidal glasshouse test; settings: evaluated after 13 days, five-point scale
[12] = test system: Amaranthus palmeri (AMAPA); assay: Pre-emergence herbicidal glasshouse test; settings: evaluated after 13 days, five-point scale

SMILES | percentage damage caused to the plant, ECHCG ([1]; 1000 g/ha) | percentage damage caused to the plant, ZEAMX ([2]; 1000 g/ha) | percentage damage caused to the plant, SEFTA ([4]; 1000 g/ha) | percentage damage caused to the plant, SEFTA ([5]; 1000 g/ha) | percentage damage caused to the plant, ZEAMX ([6]; 1000 g/ha) | percentage damage caused to the plant, ECHCG ([8]; 1000 g/ha) | percentage damage caused to the plant, IPOHE ([10]; 1000 g/ha) | percentage damage caused to the plant, IPOHE ([11]; 1000 g/ha) | also measured
CCn1c(C)c(-n2cc(Cl)cn2)c(=O)c(C(=O)O)c1-c1ccc(Cl)c(Cl)c1 [Compound 3, 5-(4-chloropyrazol-1-yl)-2-(3,4-dichlorophenyl)-1-ethyl-6-methyl-4-oxo-pyridine-3-carboxylic acid] |  |  |  |  |  |  |  |  | percentage damage caused to the plant, ECHCG ([1]; 250 g/Ha): 1 (1=0-20%); percentage damage caused to the plant, ZEAMX ([2]; 250 g/Ha): 0; percentage damage caused to the plant, AMARE ([3]; 250 g/Ha): 0; percentage damage caused to the plant, SEFTA ([4]; 250 g/Ha): 2 (2=21-40%); percentage damage caused to the plant, SEFTA ([5]; 250 g/Ha): 3 (3=41-60%); percentage damage caused to the plant, ZEAMX ([6]; 250 g/Ha): 2 (2=21-40%); percentage damage caused to the plant, AMARE ([7]; 250 g/Ha): 3 (3=41-60%); percentage damage caused to the plant, ECHCG ([8]; 250 g/Ha): 3 (3=41-60%); percentage damage caused to the plant, AMAPA ([9]; 250 g/Ha): 3 (3=41-60%); percentage damage caused to the plant, IPOHE ([10]; 250 g/Ha): 2 (2=21-40%); percentage damage caused to the plant, IPOHE ([11]; 250 g/Ha): 0; percentage damage caused to the plant, AMAPA ([12]; 250 g/Ha): 0
CCn1c(C)c(-n2ccc(Cl)n2)c(=O)c(C(=O)O)c1-c1ccc(Cl)c(Cl)c1 [Compound 2, 5-(3-chloropyrazol-1-yl)-2-(3,4-dichlorophenyl)-1-ethyl-6-methyl-4-oxo-pyridine-3-carboxylic acid] | 0 | 1 (1=0-20%) | 3 (3=41-60%) | 4 (4=61-80%) | 3 (3=41-60%) | 4 (4=61-80%) | 4 (4=61-80%) | 4 (4=61-80%) | 
CCn1c(C)c(-n2ccc(C(F)(F)F)n2)c(=O)c(C(=O)O)c1-c1ccc(Cl)c(Cl)c1 [Compound 1, 2-(3,4-dichlorophenyl)-1-ethyl-6-methyl-4-oxo-5-[3-(trifluoromethyl)pyrazol-1-yl]pyridine-3-carboxylic acid] | 0 | 0 | 1 (1=0-20%) | 1 (1=0-20%) | 1 (1=0-20%) | 1 (1=0-20%) | 2 (2=21-40%) | 4 (4=61-80%) | percentage damage caused to the plant, AMARE ([3]; 1000 g/ha): 0; percentage damage caused to the plant, AMARE ([7]; 1000 g/ha): 2 (2=21-40%); percentage damage caused to the plant, AMAPA ([9]; 1000 g/ha): 3 (3=41-60%); percentage damage caused to the plant, AMAPA ([12]; 1000 g/ha): 0
